Test results taken from patent publication US11566047B2, “Peptide or pharmaceutically acceptable salt thereof, or prodrug thereof” (TOKYO UNIVERSITY OF PHARMACY & LIFE SCIENCES, priority 2016, dated 2023).
Square brackets hold non-standard residues; d marks the D form. Peptide text beside a SMILES is read from it. * marks the point of attachment. Diglycolyl(TOTA) = NCCCOCCOCCOCCCNC(=O)COCC(=O)*; Chg = N[C@H](C(=O)O)C1CCCCC1; X1 = COCCOCCOCCOCCC(=O)*; Ahx = NCCCCCC(=O)O

Target: T1, myostatin (Homo sapiens, UniProt O14793)
T1 sequence (O14793 267-375): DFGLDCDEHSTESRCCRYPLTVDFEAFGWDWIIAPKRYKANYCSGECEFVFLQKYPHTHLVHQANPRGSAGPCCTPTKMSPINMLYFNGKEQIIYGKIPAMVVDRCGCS
Test: cell-based
Conditions: HEK293, read-out: luciferase activity (relative; myostatin without test sample = 100%)
Method: Human embryo kidney cell HEK293 cells were cultured in a 5% (v/v) CO2 incubator set to 37° C. using DMEM (NACALAI TESQUE, INC.) including a 10% (v/v) fetal bovine serum (FBS) added with a 1% (v/v) non-essential amino acid (Wako Pure Chemical Corporation).
(2) In Vitro Reporter Assay
HEK293 cells were seeded on a D-Lys-corted 96-well transparent plate (Thermo Fisher Scientific Inc.) in an amount of 2.0×10^4 cells (100 μL DMEM+10% (v/v) FBS) per well and were cultured for 24 hours.
The cells were cultured at 37° C. for 24 hours, and after the cell culture solution was replaced with serum-free DMEM, the cells were cultured for 8 hours. Incidentally, pGL4.48 [luc2P/SBE/Hygro] includes firefly luciferase reporter gene luc2P under Smad binding region (SBE) control, and when a signaling pathway by the myostatin is activated, intracellular Smad forms a complex, and the complex is bonded to SBE to promote transcription of luc2P.
The peptide as a test sample was suspended as a stock solution using DMSO to become 10 mM and stored at −30° C. Before 1 hour from addition to the culture medium, the peptide and a myostatin (Merck Millipore Corp.) were suspended with serum-free DMEM and left to stand still at room temperature (25° C.) for 20 minutes. Subsequently, a peptide with an arbitrary final concentration (0.3 to […]) and 8 ng/mL of myostatin were added to the culture medium, and then culturing was performed for 4 hours. After culturing for 4 hours, the culture solution was removed by an aspirator and the cells were washed with 1×PBS. Thereafter, Passive Lysis buffer (Promega Corporation) was added in an amount of 50 μL per well to dissolve the cells. The dissolving solution was subjected to centrifugal separation at 4500 rpm for 6 minutes under the condition of 4° C. After 20 μL of supernatant subjected to centrifugal separation was transferred to a white 96-well plate (Costar), 50 μL of Luciferase Assay Reagent (Promega Corporation) was then added, emission was detected by Luminoskan Ascent (Thermo Fisher Scientific Inc.), and a firefly luciferase activity was measured. Further, after 50 μL of Stop & Glo Buffer (Promega Corporation) was added, emission was detected by Luminoskan Ascent, and a Renilla luciferase activity was measured to be regarded as an internal control.

SMILES	remaining activity at 0.3 µM
CC[C@H](C)[C@H](NC(=O)[C@H](CCC(N)=O)NC(=O)[C@@H](NC(=O)[C@H](CCCCN)NC(=O)[C@@H](NC(=O)[C@H](Cc1c[nH]c2ccccc12)NC(=O)[C@H](CCC(=O)O)NC(=O)[C@@H](NC(=O)[C@H](Cc1ccc(O)cc1)NC(=O)[C@@H](N)Cc1c[nH]c2ccccc12)[C@@H](C)CC)[C@@H](C)CC)[C@@H](C)CC)C(=O)N[C@@H](Cc1c[nH]c2ccccc12)C(=O)N[C@@H](CO)C(=O)N[C@@H](CCCCN)C(=O)N[C@@H](CC(C)C)C(=O)N[C@@H](CCCNC(=N)N)C(=O)N[C@@H](CC(C)C)C(N)=O [nPDM-55, WYIEWIKIQIWSKLRL-NH2] (H-WYIEWIKIQIWSKLRL-NH2)	≤ 60%
CC[C@H](C)[C@H](NC(=O)[C@H](CCC(N)=O)NC(=O)[C@@H](NC(=O)[C@H](CCCCN)NC(=O)[C@@H](NC(=O)[C@H](Cc1c[nH]c2ccccc12)NC(=O)[C@H](CCCCN)NC(=O)[C@@H](NC(=O)[C@H](Cc1ccc(O)cc1)NC(=O)[C@@H](N)Cc1c[nH]c2ccccc12)[C@@H](C)CC)[C@@H](C)CC)[C@@H](C)CC)C(=O)N[C@@H](Cc1c[nH]c2ccccc12)C(=O)N[C@@H](CO)C(=O)N[C@@H](CCCCN)C(=O)N[C@@H](CC(C)C)C(=O)N[C@@H](CCCNC(=N)N)C(=O)N[C@@H](CC(C)C)C(N)=O [nPDM-55/E31K, WYIKWIKIQIWSKLRL-NH2] (H-WYIKWIKIQIWSKLRL-NH2)	≤ 60%
CC[C@H](C)[C@H](NC(=O)[C@H](CCC(N)=O)NC(=O)[C@@H](NC(=O)[C@H](CCCCN)NC(=O)[C@@H](NC(=O)[C@H](Cc1c[nH]c2ccccc12)NC(=O)[C@H](CCC(N)=O)NC(=O)[C@@H](NC(=O)[C@H](Cc1ccc(O)cc1)NC(=O)[C@@H](N)Cc1c[nH]c2ccccc12)[C@@H](C)CC)[C@@H](C)CC)[C@@H](C)CC)C(=O)N[C@@H](Cc1c[nH]c2ccccc12)C(=O)N[C@@H](CO)C(=O)N[C@@H](CCCCN)C(=O)N[C@@H](CC(C)C)C(=O)N[C@@H](CCCNC(=N)N)C(=O)N[C@@H](CC(C)C)C(N)=O [nPDM-55/E31Q, WYIQWIKIQIWSKLRL-NH2] (H-WYIQWIKIQIWSKLRL-NH2)	≤ 60%
CC[C@H](C)[C@H](NC(=O)[C@H](CCC(N)=O)NC(=O)[C@@H](NC(=O)[C@H](CCCCN)NC(=O)[C@@H](NC(=O)[C@H](Cc1c[nH]c2ccccc12)NC(=O)[C@H](CCCNC(=N)N)NC(=O)[C@@H](NC(=O)[C@H](Cc1ccc(O)cc1)NC(=O)[C@@H](N)Cc1c[nH]c2ccccc12)[C@@H](C)CC)[C@@H](C)CC)C1CCCCC1)C(=O)N[C@@H](Cc1c[nH]c2ccccc12)C(=O)N[C@@H](CO)C(=O)N[C@@H](CCCCN)C(=O)N[C@@H](CC(C)C)C(=O)N[C@@H](CCCNC(=N)N)C(=O)N[C@@H](CC(C)C)C(N)=O [nPDM-64, WYIRWIK-Chg-QIWSKLRL-NH2] (H-WYIRWIK[Chg]QIWSKLRL-NH2)	≤ 60%

Other lines, results leading:

remaining activity at 0.3 µM	SMILES
≤ 60%	CC[C@H](C)[C@H](NC(=O)[C@H](Cc1ccc(O)cc1)NC(=O)[C@H](Cc1c[nH]c2ccccc12)NC(=O)CCCCCNC(=O)CCOCCOCCOCCOC)C(=O)N[C@@H](CCC(=O)O)C(=O)N[C@@H](Cc1c[nH]c2ccccc12)C(=O)N[C@H](C(=O)N[C@@H](CCCCN)C(=O)N[C@H](C(=O)N[C@@H](CCC(N)=O)C(=O)N[C@H](C(=O)N[C@@H](Cc1c[nH]c2ccccc12)C(=O)N[C@@H](CO)C(=O)N[C@@H](CCCCN)C(=O)N[C@@H](CC(C)C)C(=O)N[C@@H](CCCNC(=N)N)C(=O)N[C@@H](CC(C)C)C(N)=O)[C@@H](C)CC)[C@@H](C)CC)[C@@H](C)CC [PDM-55, R^111-WYIEWIKIQIWSKLRL-NH2] ({X1-Ahx}-WYIEWIKIQIWSKLRL-NH2)
≤ 60%	CC[C@H](C)[C@H](NC(=O)[C@H](Cc1ccc(O)cc1)NC(=O)[C@H](Cc1c[nH]c2ccccc12)NC(=O)CCCCCNC(=O)CCOCCOCCOCCOC)C(=O)N[C@@H](CCC(=O)O)C(=O)N[C@@H](CO)C(=O)N[C@H](C(=O)N[C@@H](CCCCN)C(=O)N[C@H](C(=O)N[C@@H](CCC(N)=O)C(=O)N[C@H](C(=O)N[C@@H](Cc1c[nH]c2ccccc12)C(=O)N[C@@H](CO)C(=O)N[C@@H](CCCCN)C(=O)N[C@@H](CC(C)C)C(=O)N[C@@H](CCCNC(=N)N)C(=O)N[C@@H](CC(C)C)C(N)=O)[C@@H](C)CC)[C@@H](C)CC)[C@@H](C)CC [PDM-63, R^111-WYIESIKIQIWSKLRL-NH2] ({X1-Ahx}-WYIESIKIQIWSKLRL-NH2)
≤ 60%	CC[C@H](C)[C@H](NC(=O)[C@H](CCC(N)=O)NC(=O)[C@@H](NC(=O)[C@H](CCCNC(=N)N)NC(=O)[C@@H](NC(=O)[C@@H](Cc1c[nH]c2ccccc12)NC(=O)[C@H](CCCNC(=N)N)NC(=O)[C@@H](NC(=O)[C@H](Cc1ccc(O)cc1)NC(=O)[C@H](Cc1c[nH]c2ccccc12)NC(=O)CCCCCNC(=O)CCOCCOCCOCCOC)[C@@H](C)CC)[C@@H](C)CC)C1CCCCC1)C(=O)N[C@@H](Cc1c[nH]c2ccccc12)C(=O)N[C@@H](CO)C(=O)N[C@@H](CCCNC(=N)N)C(=O)N[C@H](C(=O)N1CCC[C@H]1C(=O)N[C@@H](CC(C)C)C(N)=O)C1CCCCC1 [PDM-80, R^111-WYIRwIR-Chg-QIWSR-Chg-PL-NH2] ({X1-Ahx}-WYIR[dW]IR[Chg]QIWSR[Chg]PL-NH2)
≤ 60%	CC[C@H](C)[C@H](NC(=O)[C@H](CCC(N)=O)NC(=O)[C@@H](NC(=O)[C@H](CCCCN)NC(=O)[C@@H](NC(=O)[C@@H](Cc1c[nH]c2ccccc12)NC(=O)[C@H](CCCNC(=N)N)NC(=O)[C@@H](NC(=O)[C@H](Cc1ccc(O)cc1)NC(=O)[C@H](Cc1c[nH]c2ccccc12)NC(=O)CCCCCNC(=O)CCOCCOCCOCCOC)[C@@H](C)CC)[C@@H](C)CC)C1CCCCC1)C(=O)N[C@@H](Cc1c[nH]c2ccccc12)C(=O)N[C@@H](CO)C(=O)N[C@@H](CCCCN)C(=O)N[C@H](C(=O)N[C@@H](CCCNC(=N)N)C(=O)N[C@@H](CC(C)C)C(N)=O)C1CCCCC1 [PDM-86, R^111-WYIRwIK-Chg-QIWSK-Chg-RL-NH2] ({X1-Ahx}-WYIR[dW]IK[Chg]QIWSK[Chg]RL-NH2)
≤ 60%	CC[C@H](C)[C@H](NC(=O)[C@H](CCC(N)=O)NC(=O)[C@@H](NC(=O)[C@H](CCCCN)NC(=O)[C@@H](NC(=O)[C@@H](Cc1c[nH]c2ccccc12)NC(=O)[C@H](CCCNC(=N)N)NC(=O)[C@@H](NC(=O)[C@H](Cc1ccc(O)cc1)NC(=O)[C@H](Cc1c[nH]c2ccccc12)NC(=O)CCCCCNC(=O)COCC(=O)NCCCOCCOCCOCCCN)[C@@H](C)CC)[C@@H](C)CC)C1CCCCC1)C(=O)N[C@@H](Cc1c[nH]c2ccccc12)C(=O)N[C@@H](CO)C(=O)N[C@@H](CCCCN)C(=O)N[C@H](C(=O)N[C@@H](CCCNC(=N)N)C(=O)N[C@@H](CC(C)C)C(N)=O)C1CCCCC1 [PDM-89, R^115-WYIRwIK-Chg-QIWSK-Chg-RL-NH2] ({Diglycolyl(TOTA)-Ahx}-WYIR[dW]IK[Chg]QIWSK[Chg]RL-NH2)
≤ 60%	CC[C@H](C)[C@H](NC(=O)[C@H](CCC(N)=O)NC(=O)[C@@H](NC(=O)[C@H](CCCCN)NC(=O)[C@@H](NC(=O)[C@@H](Cc1c[nH]c2ccccc12)NC(=O)[C@H](CCCNC(=N)N)NC(=O)[C@@H](NC(=O)[C@H](Cc1ccc(O)cc1)NC(=O)[C@H](Cc1c[nH]c2ccccc12)NC(=O)CNC(=O)COCC(=O)NCCCOCCOCCOCCCN)[C@@H](C)CC)[C@@H](C)CC)C1CCCCC1)C(=O)N[C@@H](Cc1c[nH]c2ccccc12)C(=O)N[C@@H](CO)C(=O)N[C@@H](CCCCN)C(=O)N[C@H](C(=O)N[C@@H](CCCNC(=N)N)C(=O)N[C@@H](CC(C)C)C(N)=O)C1CCCCC1 [PDM-90, R^116-WYIRwIK-Chg-QIWSK-Chg-RL-NH2] ({Diglycolyl(TOTA)}-GWYIR[dW]IK[Chg]QIWSK[Chg]RL-NH2)
≤ 60%	CC[C@H](C)[C@H](NC(=O)[C@H](CCC(N)=O)NC(=O)[C@@H](NC(=O)[C@H](CCCCN)NC(=O)[C@@H](NC(=O)[C@@H](Cc1c[nH]c2ccccc12)NC(=O)[C@H](CCCNC(=N)N)NC(=O)[C@@H](NC(=O)[C@H](Cc1ccc(O)cc1)NC(=O)[C@H](Cc1c[nH]c2ccccc12)NC(=O)CNC(=O)CNC(=O)COCC(=O)NCCCOCCOCCOCCCN)[C@@H](C)CC)[C@@H](C)CC)C1CCCCC1)C(=O)N[C@@H](Cc1c[nH]c2ccccc12)C(=O)N[C@@H](CO)C(=O)N[C@@H](CCCCN)C(=O)N[C@H](C(=O)N[C@@H](CCCNC(=N)N)C(=O)N[C@@H](CC(C)C)C(N)=O)C1CCCCC1 [PDM-91, R^117-WYIRwIK-Chg-QIWSK-Chg-RL-NH2] ({Diglycolyl(TOTA)}-GGWYIR[dW]IK[Chg]QIWSK[Chg]RL-NH2)
